Activity calls are given as the source filed them. The rule behind the calls is not given here.
Experiments:
[1] = biological target: T1, Proteasome Macropain subunit MB1 (Homo sapiens) (UniProt P28074); assay: Inhibition of chymotrypsin-like activity of human 20S proteasome at 100 nM using Suc-Leu-Leu-Val-Tyr-AMC as substrate by fluorescence assay relative to control
T1 sequence (whole entry): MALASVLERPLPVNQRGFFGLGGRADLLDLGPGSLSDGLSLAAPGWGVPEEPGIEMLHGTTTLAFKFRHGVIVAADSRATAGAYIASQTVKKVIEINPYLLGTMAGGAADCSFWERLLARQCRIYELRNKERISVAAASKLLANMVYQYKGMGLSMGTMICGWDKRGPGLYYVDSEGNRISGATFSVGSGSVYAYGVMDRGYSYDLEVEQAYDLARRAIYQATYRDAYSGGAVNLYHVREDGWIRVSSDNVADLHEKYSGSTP

[2] = biological target: T1, Proteasome Macropain subunit MB1 (Homo sapiens); assay: Inhibition of chymotrypsin-like activity of human 20S proteasome at 1 uM using Suc-Leu-Leu-Val-Tyr-AMC as substrate by fluorescence assay relative to control
RPMI-8226 = assay: Antiproliferative activity against human RPMI8226 cells after 72 hrs by SRB assay; format: functional, cell-based; conditions: RPMI-8226, 72 h
[3] = Metabolic stability in Sprague-Dawley rat liver microsomes assessed as compound remaining at 20 uM preincubated for 5 mins followed by NADPH addition measured after 20 mins by HPLC analysis; format: ADME, microsome; conditions: read-out: Stability
HL-60 = assay: Antiproliferative activity against human HL60 cells after 72 hrs by SRB assay; format: functional, cell-based; conditions: HL-60, 72 h
A2780 = assay: Antiproliferative activity against human A2780 cells after 72 hrs by SRB assay; format: functional, cell-based; conditions: A2780, 72 h
[4] = biological target: T2, Proteasome Macropain subunit MB1 (Homo sapiens, UniProt P28074); assay: Inhibition of chymotrypsin-like activity of human 20S proteasome using Suc-Leu-Leu-Val-Tyr-AMC as substrate by fluorescence assay
T2 sequence (P28074 whole entry): T1 sequence (whole entry)

Homo sapiens = species: Homo sapiens; assay: Inhibition of 20S proteasome activity in human MDA-MB-231 cells assessed as accumulation of ubiquitinated proteins at 50 nM by Western blot method; format: cell-based
A549 = assay: Antiproliferative activity against human A549 cells after 72 hrs by SRB assay; format: functional, cell-based; conditions: A549, 72 h
MDA-MB-231 = assay: Antiproliferative activity against human MDA-MB-231 cells after 72 hrs by SRB assay; format: functional, cell-based; conditions: MDA-MB-231, 72 h
[5] = Drug metabolism in human plasma administered as iv bolus dose after 30 mins; format: ADME, organism-based; conditions: read-out: Drug metabolism
[6] = biological target: T2, Proteasome Macropain subunit MB1; assay: Inhibition of chymotrypsin-like activity of human LCL-derived 20S proteasome using Suc-LLVY-AMC as substrate preincubated with enzyme followed by substrate addition measured after 30 mins by fluorescence assay

inhibition [1] | inhibition [2] | SMILES | also measured
64.8% | > 50% | CC(C)C[C@H](NC(=O)[C@H](C)NC1=C(Cl)C(=O)c2ccccc2C1=O)B(O)O | –
69.2% | > 50% | CC(C)C[C@H](NC(=O)[C@@H](NC1=CC(=O)c2ccccc2C1=O)C(C)C)B(O)O | –
90.3% | > 50% | CC(C)C[C@H](NC(=O)[C@H](Cc1ccccc1)NC1=CC(=O)c2ccccc2C1=O)B(O)O | IC50 (RPMI-8226): 1090 nM; remaining at 20 min, 20 µM [3]: 60%; IC50 (HL-60): 1110 nM; IC50 (A2780): 470 nM; IC50 [4]: 11.4 nM; inhibition (Homo sapiens): Active; IC50 (A549): 679 nM; IC50 (MDA-MB-231): 38.3 nM
42.3% | > 50% | CC1=C(N[C@H](C(=O)N[C@@H](CC(C)C)B(O)O)C(C)C)C(=O)c2ccccc2C1=O | –
67.7% | > 50% | CC(C)C[C@H](NC(=O)CNC1=C(Cl)C(=O)c2ccccc2C1=O)B(O)O | –
84.7% | > 50% | CC1=C(N[C@@H](Cc2ccccc2)C(=O)N[C@@H](CC(C)C)B(O)O)C(=O)c2ccccc2C1=O | IC50 [4]: 25.9 nM
79.8% | > 50% | CC(C)C[C@H](NC(=O)[C@H](CC(C)C)NC1=CC(=O)c2ccccc2C1=O)B(O)O | IC50 [4]: 44.3 nM
– | – | CC(C)C[C@H](NC(=O)CNC(=O)c1cc(Cl)ccc1Cl)B(O)O [IXAZOMIB] | metabolised at 0.5 h [5]: 90%
– | – | CC(C)C[C@H](NC(=O)[C@H](Cc1ccccc1)NC(=O)c1cnccn1)B(O)O [BORTEZOMIB] | IC50 (RPMI-8226): 6.7 nM; remaining at 20 min, 20 µM [3]: 44%; IC50 (HL-60): 3.2 nM; IC50 (A2780): 28.9 nM; IC50 (A549): 2.5 nM; IC50 (MDA-MB-231): 6.5 nM
31.4% | > 50% | CC1=C(N[C@@H](CC(C)C)C(=O)N[C@@H](CC(C)C)B(O)O)C(=O)c2ccccc2C1=O | –
67.5% | > 50% | CC(C)C[C@H](NC(=O)[C@H](C)NC1=CC(=O)c2ccccc2C1=O)B(O)O | –
84.9% | > 50% | CC(C)C[C@H](NC(=O)CNC1=CC(=O)c2ccccc2C1=O)B(O)O | IC50 (RPMI-8226): 3460 nM; IC50 (HL-60): 3590 nM; IC50 (A2780): 3700 nM; IC50 [4]: 23.2 nM; inhibition (Homo sapiens): Active; IC50 (A549): 2890 nM; IC50 (MDA-MB-231): 1250 nM
65.9% | > 50% | CC1=C(NCC(=O)N[C@@H](CC(C)C)B(O)O)C(=O)c2ccccc2C1=O | –
– | – | C[C@@H](CO)NC(=O)c1ccccc1O | IC50 [6]: 24800 nM
52.3% | > 50% | CC1=C(N[C@@H](C)C(=O)N[C@@H](CC(C)C)B(O)O)C(=O)c2ccccc2C1=O | –
47.4% | > 50% | CC(C)C[C@H](NC(=O)[C@@H](NC1=C(Cl)C(=O)c2ccccc2C1=O)C(C)C)B(O)O | –
86.7% | > 50% | CC(C)C[C@H](NC(=O)[C@H](Cc1ccccc1)NC1=C(Cl)C(=O)c2ccccc2C1=O)B(O)O | IC50 [4]: 24.6 nM
– | – | O=CN(O)CCC[C@@H](NC(=O)[C@H](CO)NC(=O)[C@@H]1COC(c2ccccc2O)=N1)C(=O)NCCC(=O)N[C@@H]1CCCN(O)C1=O | IC50 [6]: 39400 nM
43.5% | > 50% | CC(C)C[C@H](NC(=O)[C@H](CC(C)C)NC1=C(Cl)C(=O)c2ccccc2C1=O)B(O)O | –

Source: ChEMBL document CHEMBL4004842, “Design, synthesis and biological evaluation of novel non-peptide boronic acid derivatives as proteasome inhibitors” (Eur J Med Chem, 2017)
